Laboratory results published in US8809319B2, “Substituted 8-oxa-10,11-dihydroimidazo[2,3-a]bicyclo[3.2.1]oct-3-enes and use thereof as an insecticide” (priority 2009, dated 2014).
In brackets after ≈: the same amount, converted by molar mass. Where two headings read alike, the source gives them in different places.

Tests used:
[1] = system: Pseudaletia separata Walker; experiment: Insecticidal activity against armyworms, leaf-dipping method; type: in vivo; settings: for LC50 / mortality at 500 µg/mL: Mythimna separata; for mortality at 500 µg/mL: read-out: Pseudaletia separata Walker Mortality rate (%, 500 mg L^−1)
From the text: Second instar Pseudaletia separata Walker larvae were used as the subjects and the dipping method was employed for testing.
Pseudaletia separata Walker, which is a very important lepidopterans pest of various grains, can be suitably used in various of applications, for example, in the study of toxicity, such as the stomach toxicity, contact poisoning, comprehensive and residual effects of insecticides, and other aspects of insect toxicology, as well as the screen test for new compounds. Pseudaletia separata Walker extermination activity was tested in accordance with a method reported in the literature.
Operation procedure of the leaf-dipping method: Each sample was precisely weighed, and 2 mL of DMSO and 18 mL of water were added respectively; and then, three drops of the emulsion agent 2001 (procured from Shanghai Nongyaochang Co., Ltd.) were added to form the test liquid. A blank was also formulated by adding three drops of the 2201 emulsion agent to 2 mL of DMSO and […]. Fresh corn leaves were torn into small pieces and immersed for about five seconds in the liquid, then removed, air-dried, and placed in a 100-mL jar. About 20 2nd instar larvae were introduced into the jar. The jar was closed using white gauze and a rubber band, and the larvae were fed with corn soaked with the liquid continuously. The mortality rate of the larvae was checked after five days. The requisite temperature was 22° C. to 27° C., humidity 70% to 80%. There was no need to correct the mortality rates for each treatment if the blank mortality rate was 5% or less; however, if the control mortality rate was 5% to 20%, Abbott's correction should be used for the mortality rates for each treatment. Abbott's formula: Corrected mortality rate=[(treated mortality rate−control mortality rate)/(100−control mortality rate)×100].

Aphis craccivora = experiment: Insecticidal activity against aphids, dipping method; type: in vivo; settings: for LC50 / mortality at 500 µg/mL: Aphis craccivora; for mortality at 500 µg/mL: read-out: Aphis craccivora Mortality rate (%, 500 mg L^−1)
Description: Aphids, which belong to the Homoptera and have piercing-sucking mouth parts, are a common pest for agricultural crops. Aphis craccivora was used as the subject, and a dipping method was employed for testing.
Testing method: Each sample was precisely weighed, and 2 mL of DMSO and 18 mL of water were added respectively; then, three drops of the emulsion agent 200I were added to form a testing liquid; a blank was also prepared by adding three drops of emulsion agent 220I to 2 mL of DMSO and 18 mL of water. Broad bean leaves adhered by a certain number of insects were immersed in the testing liquid for three to five seconds, then removed and air-dried; the insects were moved into a clean container together with feed, and the container was placed in a dry, thermostatic recovery room. After 24 hours, the number of dead insects was checked.

[2] = system: nicotinic acetylcholine receptors of Periplaneta americana; experiment: Mechanism of action, electrophysiological testing on cockroach nAChRs; type: cell-based
From the text: (§1) The compound (1a) was separately subjected to electrophysiological testing and isotope marker substitution testing.

[3] = system: Nilaparvata lugens susceptible strain; experiment: Insecticidal activity against Nilaparvata lugens, micro-drip method, susceptible strain; type: in vivo; settings: for Magnitude of resistance / Relative toxicity / LD50 (ng/pest): susceptible strain; for Relative toxicity: relative to imidacloprid; for LD50 (ng/pest): topical micro-drip, 48 hours
Description: (§2) Nilaparvata lugens, which belongs to the Homoptera and has piercing-sucking mouth parts, is a common pest for agricultural crops. Nilaparvata lugens was used as the subject, and the micro-drip measurement method reported by Nagata was employed for testing.
(§3) Operation procedure: Unmated winged females two to three days after eclosion were selected as the test subjects; the compounds were diluted in acetone to a series of concentrations. The insects were paralyzed by carbon dioxide, and the liquid (0.08 μL) was dripped onto the pronotum of the insects using a manual micro-dripper (Burkard Manufacturing Co., Ltd., Rickmansworth, UK). Each of the concentrations was used to treat about 30 insects in triplicate. Acetone was used as the control. The treated adult insects were cultured on rice seedlings grown without soil in an incubator (20×20×10 cm), where the temperature was controlled at 25±1° C. with 16/8 hours of light and dark cycle. The results were checked after 48 hours, and the LD50 was calculated using a standard probability analysis method.

[4] = system: N1 α 1/β 2 receptors expressed by the oocytes; experiment: Mechanism of action, electrophysiological testing on receptors expressed by oocytes; type: cell-based
From the text: as §1

[5] = system: Nilaparvata lugens resistant strain; experiment: Insecticidal activity against Nilaparvata lugens, micro-drip method, resistant strain; type: in vivo; settings: for Magnitude of resistance: resistant strain versus susceptible strain; for Relative toxicity / LD50 (ng/pest): resistant strain; for Relative toxicity: relative to imidacloprid; for LD50 (ng/pest): topical micro-drip, 48 hours
Description: as §2, §3

[6] = foliar, 120 h, read-out: Pseudaletia separata Walker LC50 (mmol L^−1)
[7] = 24 h, read-out: Aphis craccivora LC50 (mmol L^−1)

| SMILES | mortality at 500 µg/mL ([1]; foliar, 120 h) [%] | mortality at 500 µg/mL (Aphis craccivora; 24 h) [%] | Magnitude of resistance [3] | Relative toxicity [3] | LD50 (ng/pest) [3] [ng/pest] | Magnitude of resistance [5] | Relative toxicity [5] | LD50 (ng/pest) [5] [ng/pest] | further results |
| --- | --- | --- | --- | --- | --- | --- | --- | --- | --- |
| O=[N+]([O-])C1=C2N(Cc3ccc(Cl)nc3)CCN2[C@@H]2CC[C@H]1O2 [Compound 1a, 9-((6-chloropyrid-3-yl)methyl)-4-nitro-8-oxa-10,11-dihydroimidazo-[2,3-a]-bicyclo-[3,2,1]-oct-3-ene] | 100 | 100 | 1.00 | 1.77 | 0.0742 ± 0.0106 | 6.64 | 50.00 | 0.4925 ± 0.0811 | LC50 [1, 6]: 12.5 mg/L (≈ 38.7 µM); LC50 ([1]; read-out: LC50 against Pseudaletia separata Walker): 12.5 mg/L (≈ 38.7 µM); LC50 (Aphis craccivora; [7]): 1.52 mg/L (≈ 4.71 µM); LC50 (Aphis craccivora; read-out: LC50 against aphids): 1.52 mg/L (≈ 4.71 µM); mode of action on nicotinic acetylcholine receptor (nAChRs) ([2]; conclusion from electrophysiological and isotope marker substitution testing): antagonist; agonistic action on nicotinic acetylcholine receptors of Periplaneta americana ([2]; electrophysiological testing): no agonistic action; inhibition of the agonist response to acetylcholine ([2]; receptor preparation not given): can inhibit the agonist response to acetylcholine; activity against susceptible Niloparvata lugens versus imidacloprid [3]: generally the same as that of imidacloprid; agonistic action on N1 α 1/β 2 receptors expressed by the oocytes [4]: no agonistic action; activity against imidacloprid-resistant Niloparvata lugens versus imidacloprid [5]: 50 times |
| O=[N+]([O-])C1=C2N(Cc3cnc(Cl)s3)CCN2[C@@H]2CC[C@H]1O2 [Compound 1b, 9-((2-chlorothiazol-5-yl)methyl)-4-nitro-8-oxa-10,11-dihydroimidazo-[2,3-a]-bicyclo-[3,2,1]-oct-3-ene] | 100 | 100 |  |  |  |  |  |  |  |
| O=[N+]([O-])C1=C2N(Cc3ccccc3)CCN2[C@@H]2CC[C@H]1O2 [Compound 1c, 9-benzyl-4-nitro-8-oxa-10,11-dihydroimidazo-[2,3-a]-bicyclo-[3,2,1]-oct-3-ene] | 0 | 13.6 |  |  |  |  |  |  |  |
| O=[N+]([O-])C1=C2N(Cc3ccc(Cl)cc3)CCN2[C@@H]2CC[C@H]1O2 [Compound 1d, 9-(4-chloro-benzyl)-4-nitro-8-oxa-10,11-dihydroimidazo-[2,3-a]-bicyclo-[3,2,1]-oct-3-ene] | 0 | 95.7 |  |  |  |  |  |  |  |
| O=[N+]([O-])C1=C2N(Cc3ccc(Cl)nc3)CCN2[C@H]2CCC[C@@H]1O2 [Compound 2a, 10-((6-chloropyrid-3-yl)methyl)-4-nitro-9-oxa-11,12-dihydroimidazo-[2,3-a]-bicyclo-[3,3,1]-non-3-ene] | 0 | 87.3 | 1.00 | 0.32 | 4.1440 ± 0.6136 | 4.58 | 1.17 | 18.9795 ± 2.3501 |  |
| O=[N+]([O-])C1=C2N(Cc3cnc(Cl)s3)CCN2[C@H]2CCC[C@@H]1O2 [Compound 2b, 10-((2-chlorothiazol-5-yl)methyl)-4-nitro-9-oxa-11,12-dihydroimidazo-[2,3-a]-bicyclo-[3,3,1]-non-3-ene] | 0 | 98.2 |  |  |  |  |  |  |  |
| O=[N+]([O-])C1=C2N(Cc3ccccc3)CCN2[C@H]2CCC[C@@H]1O2 [Compound 2c, 10-benzyl-4-nitro-9-oxa-11,12-dihydroimidazo-[2,3-a]-bicyclo-[3,3,1]-non-3-ene] | 0 |  |  |  |  |  |  |  | mortality at 500 µg/mL (Aphis craccivora; 500 mg L^−1, dipping, after 24 hours): 55.6% |
| O=[N+]([O-])C1=C2N(Cc3ccc(Cl)cc3)CCN2C2CCCC1O2 (stereo not drawn) [Compound 2d, 10-(4-chlorobenzyl)-4-nitro-9-oxa-11,12-dihydroimidazo-[2,3-a]-bicyclo-[3,3,1]-non-3-ene] |  |  |  |  |  |  |  |  | Pseudaletia separata Walker Mortality rate (%, 500 mg L^−1) ([1]; in vivo): 0%; Aphis craccivora Mortality rate (%, 500 mg L^−1) (Aphis craccivora; in vivo): 38.9% |
| O=[N+]([O-])NC1=NCCN1Cc1ccc(Cl)nc1 [Imidacloprid, reference compound] | 100 | 100 | 1.00 | 1.00 | 0.1316 ± 0.0154 | 168.40 | 1.00 | 22.1614 ± 3.7522 | LC50 [1, 6]: 38.7 mg/L (≈ 151 µM); LC50 (Aphis craccivora; [7]): 8.93 mg/L (≈ 34.9 µM) |
